The target of assay [1] is EGFR (human) (UniProt P00533). Conditions: kb.
The target of assay [2] is EGFR (human) (UniProt P00533).

Chain of EGFR (human) (P00533 whole entry, looked up): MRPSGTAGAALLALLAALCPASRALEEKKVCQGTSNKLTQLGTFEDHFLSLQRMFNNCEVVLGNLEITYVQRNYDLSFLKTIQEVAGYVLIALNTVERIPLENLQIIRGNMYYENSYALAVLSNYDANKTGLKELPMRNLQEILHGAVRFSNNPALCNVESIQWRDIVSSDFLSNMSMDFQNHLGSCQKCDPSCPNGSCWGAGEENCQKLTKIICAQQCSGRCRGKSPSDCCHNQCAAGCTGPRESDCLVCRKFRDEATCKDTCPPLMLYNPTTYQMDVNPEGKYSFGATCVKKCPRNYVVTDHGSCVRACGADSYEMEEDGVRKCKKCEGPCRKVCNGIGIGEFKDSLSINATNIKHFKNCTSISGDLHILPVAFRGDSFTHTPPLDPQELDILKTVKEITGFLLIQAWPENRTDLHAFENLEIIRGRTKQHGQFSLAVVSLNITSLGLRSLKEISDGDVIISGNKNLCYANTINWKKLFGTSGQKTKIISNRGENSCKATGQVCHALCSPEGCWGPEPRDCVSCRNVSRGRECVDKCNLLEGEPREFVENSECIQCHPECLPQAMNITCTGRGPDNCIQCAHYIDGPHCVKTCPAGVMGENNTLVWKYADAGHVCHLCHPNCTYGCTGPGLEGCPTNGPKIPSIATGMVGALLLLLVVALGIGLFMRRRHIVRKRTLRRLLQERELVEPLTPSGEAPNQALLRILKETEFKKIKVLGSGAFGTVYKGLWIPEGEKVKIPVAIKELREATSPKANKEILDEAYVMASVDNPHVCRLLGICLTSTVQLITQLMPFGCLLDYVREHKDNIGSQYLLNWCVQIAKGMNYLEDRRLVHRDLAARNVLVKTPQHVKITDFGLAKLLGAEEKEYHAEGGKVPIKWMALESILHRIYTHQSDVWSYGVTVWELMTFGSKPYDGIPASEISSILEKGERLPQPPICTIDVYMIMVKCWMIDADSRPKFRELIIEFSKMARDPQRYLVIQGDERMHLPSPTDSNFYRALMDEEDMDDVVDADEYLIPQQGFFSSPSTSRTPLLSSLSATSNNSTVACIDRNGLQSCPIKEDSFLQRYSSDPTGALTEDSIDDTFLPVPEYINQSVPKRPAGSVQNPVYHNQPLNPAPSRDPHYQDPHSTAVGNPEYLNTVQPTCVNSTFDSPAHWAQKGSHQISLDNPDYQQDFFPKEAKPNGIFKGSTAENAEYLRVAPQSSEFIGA

The term IC50 denotes the concentration needed to halve the response being measured. The low end stands for higher potency, the high end for lower potency. Regarding `COc1cc2ncnc(Nc3cccc(Cl)c3F)c2cc1O[C@@H]1CCCN(C(=O)Cc2cccs2)C1`, the IC50 on EGFR (human) [1] is 30 nM. Take `COc1cc2ncnc(Nc3cccc(Cl)c3F)c2cc1O[C@H]1C[C@H](C(=O)NCCNC(C)=O)N(C)C1`: the IC50 against EGFR (human) [1] was 0.144 nM; against EGFR (human) [2] it was 0.008 nM.

At EGFR (human) [1], `COc1cc2ncnc(Nc3cccc(Cl)c3F)c2cc1OC1CCN(C(=O)c2ccccn2)CC1` showed an IC50 of 16 nM. For `COc1cc2ncnc(Nc3cccc(Cl)c3F)c2cc1O[C@H]1C[C@H](C(=O)N[C@H]2COC[C@@H]2O)N(C)C1`, the IC50 against EGFR (human) [1] came to 0.139 nM; on EGFR (human) [2], 0.01 nM. On EGFR (human) [1], `COc1cc2c(Nc3cccc(Cl)c3F)ncnc2cc1OC1CCN(C(=O)c2cccnc2)CC1` registered an IC50 of 87 nM. For the compound `COc1cc2ncnc(Nc3cccc(Cl)c3F)c2cc1O[C@@H]1C[C@@H](C(=O)NCCC#N)N(C)C1`, the figures for the IC50 on EGFR (human) [1] and at EGFR (human) [2] were 0.063 nM and 0.012 nM, respectively. At EGFR (human) [1], `COc1cc2ncnc(Nc3cccc(Cl)c3F)c2cc1OC1CCN(C(=O)Nc2c(C)noc2C)CC1` came in with an IC50 of 17 nM.

On EGFR (human) [1], `COc1cc2ncnc(Nc3cccc(Cl)c3F)c2cc1OC1CCN(C(=O)c2ccno2)CC1` registered an IC50 of 17 nM. The compound `COc1cc2c(Nc3cccc(Cl)c3F)ncnc2cc1OC1CCN(C(=O)Cc2cc(C)no2)CC1` yielded a 50% inhibitory concentration (IC50) on EGFR (human) [1] of 47 nM.

Values taken from the Kinase Knowledgebase extract (Sharma et al. 2016).
